Patent US9833497B2, “Human originated EGF domain proteins and use of the same” (CHENGDU SOURCEBIO LIMITED-LIABILITY COMPANY, priority 2013, dated 2017)

How the values were obtained:
Assay type in all cases: cell-based
Moraxella catarrhalis = assay: MIC against Gram-negative bacteria: Moraxella catarrhalis
Summary of the method: (§1)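 Purified recombinant human EGF domain proteins are tested by broth dilution in LB against a 5×10^5 CFU/mL inoculum, with two-fold serial dilutions run in triplicate. Plates are incubated at 37° C with shaking, and the MIC is read as the lowest protein concentration without growth.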

E. coli DH5α = assay: Antibacterial activity: MIC and growth curve against E. coli DH5α in 96-well plate; settings: minimal inhibitory concentration against E. coli DH5α; 96-well plate, 5×10^5 CFU/mL, 37° C., judged after 8 h
Summary of the method: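 MIC taken as lowest protein level with no bacterial growth, tracked by A600 every 30 min during 37 °C, 175 rpm culture. Two-fold protein series 50-12.5 μg/mL final, triplicate wells, against 5×10^5 CFU/mL of LB-washed mid-log cells.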

Proteus vulgaris = assay: MIC against Gram-negative bacteria: Proteus vulgaris
Summary of the method: as §1

Serratia marcescens = assay: MIC against Gram-negative bacteria: Serratia marcescens
Summary of the method: as §1

Klebsiella pneumonia = assay: MIC against Gram-negative bacteria: Klebsiella pneumonia
Summary of the method: as §1

Enterobacter cloacae = assay: MIC against Gram-negative bacteria: Enterobacter cloacae
Summary of the method: as §1

Citrobacter diversus = assay: MIC against Gram-negative bacteria: Citrobacter diversus
Summary of the method: as §1

Pseudomonas aeruginosa = assay: MIC against Gram-negative bacteria: Pseudomonas aeruginosa
Summary of the method: as §1

E. coli BL21 = assay: MIC against Gram-negative bacteria: E. coli BL21
Summary of the method: as §1

Aeromonas hydrophila = assay: MIC against Gram-negative bacteria: Aeromonas hydrophila
Summary of the method: as §1

Proteus mirabilis = assay: MIC against Gram-negative bacteria: Proteus mirabilis
Summary of the method: as §1

[1] = Moraxella catarrhalis, 5×10^5 CFU/mL, 10 h cultivation at 37° C.
[2] = Proteus vulgaris, 5×10^5 CFU/mL, 10 h cultivation at 37° C.
[3] = Serratia marcescens, 5×10^5 CFU/mL, 10 h cultivation at 37° C.
[4] = Klebsiella pneumonia, 5×10^5 CFU/mL, 10 h cultivation at 37° C.
[5] = Enterobacter cloacae, 5×10^5 CFU/mL, 10 h cultivation at 37° C.
[6] = Citrobacter diversus, 5×10^5 CFU/mL, 10 h cultivation at 37° C.
[7] = Pseudomonas aeruginosa, 5×10^5 CFU/mL, 10 h cultivation at 37° C.
[8] = E. coli BL21, 5×10^5 CFU/mL, 10 h cultivation at 37° C.
[9] = Aeromonas hydrophila, 5×10^5 CFU/mL, 10 h cultivation at 37° C.
[10] = Proteus mirabilis, 5×10^5 CFU/mL, 10 h cultivation at 37° C.
[11] = 10 h cultivation at 37° C., 5×10^5 CFU/mL, two-fold serial dilution
[12] = M. catarrhalis, 10 h cultivation at 37° C.
[13] = P. vulgaris, 10 h cultivation at 37° C.
[14] = S. marcescens, 10 h cultivation at 37° C.
[15] = K. pneumonia, 10 h cultivation at 37° C.
[16] = E. cloacae, 10 h cultivation at 37° C.
[17] = C. diversus, 10 h cultivation at 37° C.
[18] = P. aeruginosa, 10 h cultivation at 37° C.
[19] = E. coli BL21, 10 h cultivation at 37° C.
[20] = A. hydrophila, 10 h cultivation at 37° C.
[21] = P. mirabilis, 10 h cultivation at 37° C.
[22] = 96-well plate, 5×10^5 CFU/mL, 37° C., 10 h

## PRT1367 (YPACPENCSGHGECVRGVCQCHEDFMSEDCS; listed as Homo sapiens)
Moraxella catarrhalis; [1]
  MIC against M. catarrhalis: 50 µg/mL
E. coli DH5α
  MIC: 25 µg/mL
Proteus vulgaris; [2]
  MIC against P. vulgaris: 50 µg/mL
Serratia marcescens; [3]
  MIC against S. marcescens: 25 µg/mL
Klebsiella pneumonia; [4]
  MIC against K. pneumonia: 12.5 µg/mL
Enterobacter cloacae; [5]
  MIC against E. cloacae: 25 µg/mL
Citrobacter diversus; [6]
  MIC against C. diversus: 12.5 µg/mL
Pseudomonas aeruginosa; [7]
  MIC against P. aeruginosa: 25 µg/mL
E. coli BL21; [8]
  MIC against E. coli BL21: 50 µg/mL
Aeromonas hydrophila; [9]
  MIC against A. hydrophila: 50 µg/mL
Proteus mirabilis; [10]
  MIC against P. mirabilis: 12.5 µg/mL

## PRT253 (DYCSQNTCLNGGKCSWTHGAGYVCKCPPQFSGKHCE; listed as Homo sapiens)
Moraxella catarrhalis; M. catarrhalis, 10 h cultivation at 37° C., 5×10^5 CFU/mL
  MIC (μg/mL) M. catarrhalis: 25 µg/mL
E. coli DH5α
  MIC: 12.5 µg/mL
Proteus vulgaris; P. vulgaris, 10 h cultivation at 37° C., 5×10^5 CFU/mL
  MIC (μg/mL) P. vulgaris: 25 µg/mL
Serratia marcescens; S. marcescens, 10 h cultivation at 37° C., 5×10^5 CFU/mL
  MIC (μg/mL) S. marcescens: 12.5 µg/mL
Klebsiella pneumonia; K. pneumonia, 10 h cultivation at 37° C., 5×10^5 CFU/mL
  MIC (μg/mL) K. pneumonia: 25 µg/mL
Enterobacter cloacae; E. cloacae, 10 h cultivation at 37° C., 5×10^5 CFU/mL
  MIC (μg/mL) E. cloacae: 12.5 µg/mL
Citrobacter diversus; C. diversus, 10 h cultivation at 37° C., 5×10^5 CFU/mL
  MIC (μg/mL) C. diversus: 12.5 µg/mL
Pseudomonas aeruginosa; P. aeruginosa, 10 h cultivation at 37° C., 5×10^5 CFU/mL
  MIC (μg/mL) P. aeruginosa: 12.5 µg/mL
E. coli BL21; E. coli BL21, 10 h cultivation at 37° C., 5×10^5 CFU/mL
  MIC (μg/mL) E. coli BL21: 25 µg/mL
Aeromonas hydrophila; A. hydrophila, 10 h cultivation at 37° C., 5×10^5 CFU/mL
  MIC (μg/mL) A. hydrophila: 25 µg/mL
Proteus mirabilis; P. mirabilis, 10 h cultivation at 37° C., 5×10^5 CFU/mL
  MIC (μg/mL) P. mirabilis: 12.5 µg/mL

## PRT1110 (RREQCRPLPCVHGGSCVDLWTHFRCDCARPHRGPTCA; listed as Homo sapiens)
Moraxella catarrhalis; [11]
  MIC M. catarrhalis: 12.5 µg/mL
E. coli DH5α
  MIC: 25 µg/mL
Proteus vulgaris; [11]
  MIC P. vulgaris: 50 µg/mL
Serratia marcescens; [11]
  MIC S. marcescens: 25 µg/mL
Klebsiella pneumonia; [11]
  MIC K. pneumonia: 12.5 µg/mL
Enterobacter cloacae; [11]
  MIC E. cloacae: 50 µg/mL
Citrobacter diversus; [11]
  MIC C. diversus: 50 µg/mL
Pseudomonas aeruginosa; [11]
  MIC P. aeruginosa: 25 µg/mL
E. coli BL21; [11]
  MIC E. coli BL21: 50 µg/mL
Aeromonas hydrophila; [11]
  MIC A. hydrophila: 12.5 µg/mL
Proteus mirabilis; [11]
  MIC P. mirabilis: 25 µg/mL

## PRT930 (NFDDCASNPCIHGICMDGINRYSCVCSPGFTGQRCN; listed as Homo sapiens)
Moraxella catarrhalis; [12]
  MIC: 50 µg/mL
E. coli DH5α
  MIC: 50 µg/mL
Proteus vulgaris; [13]
  MIC: 12.5 µg/mL
Serratia marcescens; [14]
  MIC: 50 µg/mL
Klebsiella pneumonia; [15]
  MIC: 50 µg/mL
Enterobacter cloacae; [16]
  MIC: 12.5 µg/mL
Citrobacter diversus; [17]
  MIC: 25 µg/mL
Pseudomonas aeruginosa; [18]
  MIC: 25 µg/mL
E. coli BL21; [19]
  MIC: 12.5 µg/mL
Aeromonas hydrophila; [20]
  MIC: 25 µg/mL
Proteus mirabilis; [21]
  MIC: 25 µg/mL

## PRT523 (CSCGRRLCEEMTGQCRCPPRTVRPQCEVCETHSFSFHPMAGCEG; listed as Homo sapiens)
Moraxella catarrhalis; [22]
  MIC against M. catarrhalis: 12.5 µg/mL
E. coli DH5α
  MIC: 12.5 µg/mL
Proteus vulgaris; [22]
  MIC against P. vulgaris: 12.5 µg/mL
Serratia marcescens; [22]
  MIC against S. marcescens: 12.5 µg/mL
Klebsiella pneumonia; [22]
  MIC against K. pneumonia: 25 µg/mL
Enterobacter cloacae; [22]
  MIC against E. cloacae: 12.5 µg/mL
Citrobacter diversus; [22]
  MIC against C. diversus: 50 µg/mL
Pseudomonas aeruginosa; [22]
  MIC against P. aeruginosa: 50 µg/mL
E. coli BL21; [22]
  MIC against E. coli BL21: 25 µg/mL
Aeromonas hydrophila; [22]
  MIC against A. hydrophila: 25 µg/mL
Proteus mirabilis; [22]
  MIC against P. mirabilis: 50 µg/mL

## PRT928 (NIDNCDPDPCHHGQCQDGIDSYTCICNPGYMGAICS; listed as Homo sapiens)
Moraxella catarrhalis; [12]
  MIC: 12.5 µg/mL
E. coli DH5α
  MIC: 25 µg/mL
Proteus vulgaris; [13]
  MIC: 25 µg/mL
Serratia marcescens; [14]
  MIC: 25 µg/mL
Klebsiella pneumonia; [15]
  MIC: 12.5 µg/mL
Enterobacter cloacae; [16]
  MIC: 25 µg/mL
Citrobacter diversus; [17]
  MIC: 25 µg/mL
Pseudomonas aeruginosa; [18]
  MIC: 25 µg/mL
E. coli BL21; [19]
  MIC: 12.5 µg/mL
Aeromonas hydrophila; [20]
  MIC: 12.5 µg/mL
Proteus mirabilis; [21]
  MIC: 12.5 µg/mL

## PRT1298 (PINTCIQNPCQHGGTCHLSDSHKDGFSCSCPLGFEGQRCE; listed as Homo sapiens)
Moraxella catarrhalis; Moraxella catarrhalis, 96-well plate, 5×10^5 CFU/mL, 37° C., 10 h
  MIC against M. catarrhalis: 12.5 µg/mL
E. coli DH5α
  MIC: 12.5 µg/mL
Proteus vulgaris; Proteus vulgaris, 96-well plate, 5×10^5 CFU/mL, 37° C., 10 h
  MIC against P. vulgaris: 12.5 µg/mL
Serratia marcescens; Serratia marcescens, 96-well plate, 5×10^5 CFU/mL, 37° C., 10 h
  MIC against S. marcescens: 25 µg/mL
Klebsiella pneumonia; Klebsiella pneumonia, 96-well plate, 5×10^5 CFU/mL, 37° C., 10 h
  MIC against K. pneumonia: 50 µg/mL
Enterobacter cloacae; Enterobacter cloacae, 96-well plate, 5×10^5 CFU/mL, 37° C., 10 h
  MIC against E. cloacae: 25 µg/mL
Citrobacter diversus; Citrobacter diversus, 96-well plate, 5×10^5 CFU/mL, 37° C., 10 h
  MIC against C. diversus: 50 µg/mL
Pseudomonas aeruginosa; Pseudomonas aeruginosa, 96-well plate, 5×10^5 CFU/mL, 37° C., 10 h
  MIC against P. aeruginosa: 12.5 µg/mL
E. coli BL21; E. coli BL21, 96-well plate, 5×10^5 CFU/mL, 37° C., 10 h
  MIC against E. coli BL21: 50 µg/mL
Aeromonas hydrophila; Aeromonas hydrophila, 96-well plate, 5×10^5 CFU/mL, 37° C., 10 h
  MIC against A. hydrophila: 12.5 µg/mL
Proteus mirabilis; Proteus mirabilis, 96-well plate, 5×10^5 CFU/mL, 37° C., 10 h
  MIC against P. mirabilis: 50 µg/mL

## PRT1456 (DYDECERKEDDCVPGTSCRNTLGSFTCSCEGGAPDFPVEYSE; listed as Homo sapiens)
Moraxella catarrhalis; [1]
  MIC against M. catarrhalis: 50 µg/mL
E. coli DH5α
  MIC: 12.5 µg/mL
Proteus vulgaris; [2]
  MIC against P. vulgaris: 12.5 µg/mL
Serratia marcescens; [3]
  MIC against S. marcescens: 12.5 µg/mL
Klebsiella pneumonia; [4]
  MIC against K. pneumonia: 50 µg/mL
Enterobacter cloacae; [5]
  MIC against E. cloacae: 25 µg/mL
Citrobacter diversus; [6]
  MIC against C. diversus: 25 µg/mL
Pseudomonas aeruginosa; [7]
  MIC against P. aeruginosa: 12.5 µg/mL
E. coli BL21; [8]
  MIC against E. coli BL21: 25 µg/mL
Aeromonas hydrophila; [9]
  MIC against A. hydrophila: 12.5 µg/mL
Proteus mirabilis; [10]
  MIC against P. mirabilis: 12.5 µg/mL

## PRT1457 (CQCHGHADNCDTTSQPYRCLCSQESFTEGLHCDRCLPLYNDKPFRQGDQVYAFNCKP; listed as Homo sapiens)
Moraxella catarrhalis; [1]
  MIC against M. catarrhalis: 12.5 µg/mL
E. coli DH5α
  MIC: 12.5 µg/mL
Proteus vulgaris; [2]
  MIC against P. vulgaris: 12.5 µg/mL
Serratia marcescens; [3]
  MIC against S. marcescens: 25 µg/mL
Klebsiella pneumonia; [4]
  MIC against K. pneumonia: 100 µg/mL
Enterobacter cloacae; [5]
  MIC against E. cloacae: 12.5 µg/mL
Citrobacter diversus; [6]
  MIC against C. diversus: 12.5 µg/mL
Pseudomonas aeruginosa; [7]
  MIC against P. aeruginosa: 12.5 µg/mL
E. coli BL21; [8]
  MIC against E. coli BL21: 25 µg/mL
Aeromonas hydrophila; [9]
  MIC against A. hydrophila: 12.5 µg/mL
Proteus mirabilis; [10]
  MIC against P. mirabilis: 25 µg/mL

## PRT1400 (VCSVDCGTHGVCIGGACRCEEGWTGAACD; listed as Homo sapiens)
Moraxella catarrhalis; [1]
  MIC against M. catarrhalis: 50 µg/mL
E. coli DH5α
  MIC: 50 µg/mL
Proteus vulgaris; [2]
  MIC against P. vulgaris: 12.5 µg/mL
Serratia marcescens; [3]
  MIC against S. marcescens: 25 µg/mL
Klebsiella pneumonia; [4]
  MIC against K. pneumonia: 12.5 µg/mL
Enterobacter cloacae; [5]
  MIC against E. cloacae: 25 µg/mL
Citrobacter diversus; [6]
  MIC against C. diversus: 12.5 µg/mL
Pseudomonas aeruginosa; [7]
  MIC against P. aeruginosa: 50 µg/mL
E. coli BL21; [8]
  MIC against E. coli BL21: 12.5 µg/mL
Aeromonas hydrophila; [9]
  MIC against A. hydrophila: 50 µg/mL
Proteus mirabilis; [10]
  MIC against P. mirabilis: 12.5 µg/mL
